Source: US10246453B2, “Benzenesulfonamide compounds and their use as therapeutic agents” (Xenon Pharmaceuticals Inc., priority 2016, dated 2019)
Structures can show the parent of a compound that is named as a salt.

Experiments:
NaV1.1 = NaV1.1 (Homo sapiens (Human), UniProt P35498); experiment: Sodium Influx Assay (Flux), NaV1.1; assay type: cell-based; details: Trex HEK293 cells, ANG2 dye; arithmetic mean
NaV1.5 = NaV1.5 (Homo sapiens (Human), UniProt Q14524); experiment: Sodium Influx Assay (Flux), NaV1.5; details: read-out: Flux NaV1.5 IC50; Trex HEK293 cells, ANG2 dye; arithmetic mean
Sequence of NaV1.5 (Q14524 other isoform, or with tags, fused parts or gaps): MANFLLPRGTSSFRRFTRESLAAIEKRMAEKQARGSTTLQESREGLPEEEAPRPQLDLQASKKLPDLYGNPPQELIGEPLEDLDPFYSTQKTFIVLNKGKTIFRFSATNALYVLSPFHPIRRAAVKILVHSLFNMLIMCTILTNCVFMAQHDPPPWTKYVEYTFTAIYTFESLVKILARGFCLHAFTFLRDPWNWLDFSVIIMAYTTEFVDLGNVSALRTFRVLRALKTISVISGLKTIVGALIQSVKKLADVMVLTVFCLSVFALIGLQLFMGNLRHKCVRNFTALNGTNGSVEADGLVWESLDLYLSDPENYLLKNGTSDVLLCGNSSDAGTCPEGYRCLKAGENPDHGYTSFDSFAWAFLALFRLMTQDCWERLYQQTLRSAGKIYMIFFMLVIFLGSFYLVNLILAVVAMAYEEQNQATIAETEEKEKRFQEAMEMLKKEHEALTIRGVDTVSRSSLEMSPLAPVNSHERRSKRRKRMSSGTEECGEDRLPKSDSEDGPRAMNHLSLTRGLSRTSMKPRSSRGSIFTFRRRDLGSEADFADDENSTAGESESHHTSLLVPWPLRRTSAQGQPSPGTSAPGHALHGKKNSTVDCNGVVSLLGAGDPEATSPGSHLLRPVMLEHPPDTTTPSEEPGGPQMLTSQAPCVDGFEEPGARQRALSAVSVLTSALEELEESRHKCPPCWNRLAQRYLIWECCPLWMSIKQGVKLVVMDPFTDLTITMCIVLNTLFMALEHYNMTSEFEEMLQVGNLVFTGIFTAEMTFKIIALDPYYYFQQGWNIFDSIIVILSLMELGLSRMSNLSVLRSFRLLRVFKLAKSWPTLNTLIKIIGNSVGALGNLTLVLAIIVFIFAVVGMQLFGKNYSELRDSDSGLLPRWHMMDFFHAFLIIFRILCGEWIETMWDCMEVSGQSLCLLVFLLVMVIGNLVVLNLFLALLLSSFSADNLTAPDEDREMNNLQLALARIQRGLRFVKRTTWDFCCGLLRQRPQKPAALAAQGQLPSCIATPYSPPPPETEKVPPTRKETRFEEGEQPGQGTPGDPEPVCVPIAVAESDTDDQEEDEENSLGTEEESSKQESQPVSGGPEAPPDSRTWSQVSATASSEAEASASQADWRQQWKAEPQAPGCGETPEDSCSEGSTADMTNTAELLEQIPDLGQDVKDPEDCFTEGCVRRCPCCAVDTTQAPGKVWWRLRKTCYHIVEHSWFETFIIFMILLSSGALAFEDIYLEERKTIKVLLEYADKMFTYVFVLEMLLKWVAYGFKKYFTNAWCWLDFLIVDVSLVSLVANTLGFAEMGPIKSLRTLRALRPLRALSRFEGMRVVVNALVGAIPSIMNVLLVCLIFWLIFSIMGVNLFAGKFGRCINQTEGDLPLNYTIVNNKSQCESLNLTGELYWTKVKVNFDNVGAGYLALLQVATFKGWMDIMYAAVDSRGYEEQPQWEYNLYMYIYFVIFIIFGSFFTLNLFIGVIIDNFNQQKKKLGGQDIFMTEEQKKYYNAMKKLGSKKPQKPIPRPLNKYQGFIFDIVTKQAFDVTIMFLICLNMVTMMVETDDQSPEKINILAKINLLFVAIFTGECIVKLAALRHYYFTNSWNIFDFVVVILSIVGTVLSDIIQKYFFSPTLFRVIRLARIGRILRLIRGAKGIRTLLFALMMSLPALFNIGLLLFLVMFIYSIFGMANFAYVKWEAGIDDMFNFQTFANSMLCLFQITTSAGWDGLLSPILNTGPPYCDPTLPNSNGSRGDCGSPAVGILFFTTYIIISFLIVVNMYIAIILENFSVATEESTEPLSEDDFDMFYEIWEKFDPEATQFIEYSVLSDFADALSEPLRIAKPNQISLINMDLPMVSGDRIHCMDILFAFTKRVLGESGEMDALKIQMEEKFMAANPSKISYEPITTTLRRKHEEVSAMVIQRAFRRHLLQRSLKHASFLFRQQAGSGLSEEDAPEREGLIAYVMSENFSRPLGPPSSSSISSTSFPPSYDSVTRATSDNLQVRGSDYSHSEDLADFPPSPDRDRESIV

NaV1.6 = NaV1.6 (Homo sapiens (Human), UniProt Q9UQD0); experiment: Sodium Influx Assay (Flux), NaV1.6; details: read-out: Flux NaV1.6 IC50; Trex HEK293 cells, ANG2 dye; arithmetic mean

Cc1cc(S(=O)(=O)Nc2ccon2)c(F)cc1N(C)[C@H]1CCN(Cc2ccccc2)C1 [Example 229, (S)-4-((1-benzylpyrrolidin-3-yl)(methyl)amino)-2-fluoro-N-(isoxazol-3-yl)-5-methylbenzenesulfonamide 2,2,2-trifluoroacetate] showed an IC50 (NaV1.1) of over 30 µM, an IC50 (NaV1.5) of over 30 µM and an IC50 (NaV1.6) of 1.56 µM.
CN(c1cc(F)c(S(=O)(=O)Nc2cscn2)cc1Br)[C@H]1CCN(Cc2ccccc2)C1 [Example 230, (S)-4-((1-benzylpyrrolidin-3-yl)(methyl)amino)-5-bromo-2-fluoro-N-(thiazol-4-yl)benzenesulfonamide 2,2,2-trifluoroacetate] was tested, and the IC50 (NaV1.1) was 13.1 µM, the IC50 (NaV1.5) was 23 µM and the IC50 (NaV1.6) was 0.967 µM.
Work on C[C@H]1C[C@H](N(C)c2cc(F)c(S(=O)(=O)Nc3cscn3)cc2Cl)CN1Cc1ccccc1 [Example 231, 4-(((3S,5S)-1-benzyl-5-methylpyrrolidin-3-yl)(methyl)amino)-5-chloro-2-fluoro-N-(thiazol-4-yl)benzenesulfonamide formate] yielded an IC50 (NaV1.1) of 25.5 µM, an IC50 (NaV1.5) of 15.1 µM and an IC50 (NaV1.6) of 5.51 µM.
With O=S(=O)(Nc1cscn1)c1ccc(OC2CCN(Cc3cccc(C(F)F)c3)CC2)c(Cl)c1 [Example 232, 3-chloro-4-((1-(3-(difluoromethyl)benzyl)piperidin-4-yl)oxy)-N-(thiazol-4-yl)benzenesulfonamide formate] the IC50 (NaV1.1) was 4.6 µM, the IC50 (NaV1.5) was 3.76 µM and the IC50 (NaV1.6) was 0.858 µM.
Cc1c(NC2(C)CN(Cc3ccccc3)C2)cc(F)c(S(=O)(=O)Nc2cscn2)c1F [Example 233, 4-((1-benzyl-3-methylazetidin-3-yl)amino)-2,6-difluoro-3-methyl-N-(thiazol-4-yl)benzenesulfonamide 2,2,2-trifluoroacetate] was tested, and the IC50 (NaV1.1) was 6.02 µM, the IC50 (NaV1.5) was 27.3 µM and the IC50 (NaV1.6) was 0.375 µM.
Compound O=S(=O)(Nc1nccs1)c1ccc(OC2CCN(CCc3ccccc3)CC2)c(Cl)c1 [Example 234, 3-chloro-4-((1-phenethylpiperidin-4-yl)oxy)-N-(thiazol-2-yl)benzenesulfonamide] has an IC50 (NaV1.1) of 6.87 µM, an IC50 (NaV1.5) of 20.7 µM and an IC50 (NaV1.6) of 1.42 µM.
In the case of Cc1c(N(C)[C@H]2CCN(Cc3cccc(F)c3)C2)cc(F)c(S(=O)(=O)Nc2cscn2)c1F [Example 235, (S)-2,6-difluoro-4-((1-(3-fluorobenzyl)pyrrolidin-3-yl)(methyl)amino)-3-methyl-N-(thiazol-4-yl)benzenesulfonamide formate], the IC50 (NaV1.1) is reported as 10.2 µM, the IC50 (NaV1.5) is reported as 15.4 µM and the IC50 (NaV1.6) is reported as 0.047 µM.
In the case of Cc1c(N(C)[C@H]2CCN(Cc3ccccc3F)C2)cc(F)c(S(=O)(=O)Nc2cscn2)c1F [Example 236, (S)-2,6-difluoro-4-((1-(2-fluorobenzyl)pyrrolidin-3-yl)(methyl)amino)-3-methyl-N-(thiazol-4-yl)benzenesulfonamide formate], the IC50 (NaV1.1) is reported as 24.3 µM, the IC50 (NaV1.5) is reported as over 30 µM and the IC50 (NaV1.6) is reported as 0.067 µM.
Cc1c(N(C)[C@H]2CCN(Cc3cccc(F)c3F)C2)cc(F)c(S(=O)(=O)Nc2cscn2)c1F [Example 237, (S)-4-((1-(2,3-difluorobenzyl)pyrrolidin-3-yl)(methyl)amino)-2,6-difluoro-3-methyl-N-(thiazol-4-yl)benzenesulfonamide formate] gave an IC50 (NaV1.1) of 8.52 µM, an IC50 (NaV1.5) of 14.7 µM and an IC50 (NaV1.6) of 0.064 µM.
Work on Cc1cc(S(=O)(=O)Nc2cscn2)c(F)cc1OC1CCN(Cc2ccccc2)CC1 [Example 239, 4-((1-benzylpiperidin-4-yl)oxy)-2-fluoro-5-methyl-N-(thiazol-4-yl)benzenesulfonamide] yielded an IC50 (NaV1.1) of 27 µM, an IC50 (NaV1.5) of 16.5 µM and an IC50 (NaV1.6) of 0.708 µM.
Cc1c(N(C)[C@H]2CCN(Cc3cc(F)ccc3F)C2)cc(F)c(S(=O)(=O)Nc2cscn2)c1F [Example 240, (S)-4-((1-(2,5-difluorobenzyl)pyrrolidin-3-yl)(methyl)amino)-2,6-difluoro-3-methyl-N-(thiazol-4-yl)benzenesulfonamide 2,2,2-trifluoroacetate] gave an IC50 (NaV1.1) of 8.06 µM, an IC50 (NaV1.5) of 7.46 µM and an IC50 (NaV1.6) of 0.093 µM.
With CN(c1ccc(S(=O)(=O)Nc2nccs2)cc1Cl)C1(C)CCN(Cc2ccccc2)C1 (stereo not drawn) [Example 241, 4-((1-benzyl-3-methylpyrrolidin-3-yl)(methyl)amino)-3-chloro-N-(thiazol-2-yl)benzenesulfonamide] the IC50 (NaV1.1) was 9.93 µM, the IC50 (NaV1.5) was 15.1 µM and the IC50 (NaV1.6) was 0.274 µM.
CC[C@H](c1ccccc1)N1CC[C@H](N(C)c2cc(F)c(S(=O)(=O)Nc3cscn3)cc2Cl)C1 [Example 243, 5-chloro-2-fluoro-4-(methyl((S)-1-((R)-1-phenylpropyl)pyrrolidin-3-yl)amino)-N-(thiazol-4-yl)benzenesulfonamide] gave an IC50 (NaV1.1) of 13.1 µM, an IC50 (NaV1.5) of 25.7 µM and an IC50 (NaV1.6) of 1.06 µM.
Work on CN(c1cc(F)c(S(=O)(=O)Nc2cscn2)cc1Cl)[C@H]1CCN(C2(c3ccccc3F)CCC2)C1 [Example 244, (S)-5-chloro-2-fluoro-4-((1-(1-(2-fluorophenyl)cyclobutyl)pyrrolidin-3-yl)(methyl)amino)-N-(thiazol-4-yl)benzenesulfonamide formate] yielded an IC50 (NaV1.1) of 6.94 µM, an IC50 (NaV1.5) of 5.08 µM and an IC50 (NaV1.6) of 1.23 µM.
Cc1nc(CN2CC[C@H](N(C)c3cc(F)c(S(=O)(=O)Nc4cscn4)cc3C)C2)c(C)o1 [Example 245, (S)-4-((1-((2,5-dimethyloxazol-4-yl)methyl)pyrrolidin-3-yl)(methyl)amino)-2-fluoro-5-methyl-N-(thiazol-4-yl)benzenesulfonamide 2,2,2-trifluoroacetate] was tested, and the IC50 (NaV1.1) was over 30 µM, the IC50 (NaV1.5) was over 30 µM and the IC50 (NaV1.6) was 2.12 µM.
CN(c1ccc(S(=O)(=O)Nc2cscn2)c(F)c1Cl)[C@H]1CCN([C@H]2CCc3ccccc32)C1 [Example 247, 3-chloro-4-(((S)-1-((S)-2,3-dihydro-1H-inden-1-yl)pyrrolidin-3-yl)(methyl)amino)-2-fluoro-N-(thiazol-4-yl)benzenesulfonamide 2,2,2-trifluoroacetate] gave an IC50 (NaV1.1) of 6.87 µM, an IC50 (NaV1.5) of 14 µM and an IC50 (NaV1.6) of 0.469 µM.
Work on CC[C@@H](c1ccccc1Cl)N1CC[C@H](N(C)c2cc(F)c(S(=O)(=O)Nc3cscn3)cc2Cl)C1 [Example 248, 5-chloro-4-(((S)-1-((S)-1-(2-chlorophenyl)propyl)pyrrolidin-3-yl)(methyl)amino)-2-fluoro-N-(thiazol-4-yl)benzenesulfonamide 2,2,2-trifluoroacetate] yielded an IC50 (NaV1.1) of 5.53 µM, an IC50 (NaV1.5) of 7.06 µM and an IC50 (NaV1.6) of 3.31 µM.
With C[C@@H](c1ccccc1)N1CC[C@H](N(C)c2ccc(S(=O)(=O)Nc3cscn3)cc2Cl)C1 [Example 250, 3-chloro-4-(methyl((S)-1-((S)-1-phenylethyl)pyrrolidin-3-yl)amino)-N-(thiazol-4-yl)benzenesulfonamide 2,2,2-trifluoroacetate] the IC50 (NaV1.1) was 5.5 µM, the IC50 (NaV1.5) was 6.48 µM and the IC50 (NaV1.6) was 1.42 µM.
For CN(c1ccc(S(=O)(=O)Nc2ncns2)cc1Cl)[C@H]1CCN(Cc2ccccc2Cl)C1 [Example 252, (S)-3-chloro-4-((1-(2-chlorobenzyl)pyrrolidin-3-yl)(methyl)amino)-N-(1,2,4-thiadiazol-5-yl)benzenesulfonamide 2,2,2-trifluoroacetate], the IC50 (NaV1.1) was 17.1 µM, the IC50 (NaV1.5) was 8.08 µM and the IC50 (NaV1.6) was 0.304 µM.
With CC1(Nc2ccc(S(=O)(=O)Nc3cscn3)cc2Cl)CN(Cc2ccccc2)C1 [Example 255, 4-((1-benzyl-3-methylazetidin-3-yl)amino)-3-chloro-N-(thiazol-4-yl)benzenesulfonamide 2,2,2-trifluoroacetate] the IC50 (NaV1.1) was 9.14 µM, the IC50 (NaV1.5) was 12.7 µM and the IC50 (NaV1.6) was 3.7 µM.
In the case of O=S(=O)(Nc1cscn1)c1cc(Cl)c(N[C@H]2CCN(Cc3ccccc3)C2)cc1F [Example 258, (S)-4-((1-benzylpyrrolidin-3-yl)amino)-5-chloro-2-fluoro-N-(thiazol-4-yl)benzenesulfonamide formate], the IC50 (NaV1.1) is reported as 12.9 µM, the IC50 (NaV1.5) is reported as 15.4 µM and the IC50 (NaV1.6) is reported as 7.98 µM.
In the case of O=S(=O)(Nc1cscn1)c1cc(Cl)c(N[C@@H]2CCN(Cc3ccccc3)C2)cc1F [Example 261, (R)-4-((1-benzylpyrrolidin-3-yl)amino)-5-chloro-2-fluoro-N-(thiazol-4-yl)benzenesulfonamide], the IC50 (NaV1.1) is reported as 8.29 µM, the IC50 (NaV1.5) is reported as 24.6 µM and the IC50 (NaV1.6) is reported as 6.04 µM.
CN(c1cc(F)c(S(=O)(=O)Nc2cscn2)cc1Cl)[C@@H]1CCN(Cc2ccccc2)C1 [Example 262, (R)-4-((1-benzylpyrrolidin-3-yl)(methyl)amino)-5-chloro-2-fluoro-N-(thiazol-4-yl)benzenesulfonamide] was tested, and the IC50 (NaV1.1) was 25.2 µM, the IC50 (NaV1.5) was 28.8 µM and the IC50 (NaV1.6) was 13.3 µM.
O=S(=O)(Nc1cscn1)c1cc(Cl)c(N[C@@H]2CN(Cc3ccccc3)CC23CC3)cc1F [Example 264, (S)-4-((5-benzyl-5-azaspiro[2.4]heptan-7-yl)amino)-5-chloro-2-fluoro-N-(thiazol-4-yl)benzenesulfonamide 2,2,2-trifluoroacetate] gave an IC50 (NaV1.1) of 6.01 µM, an IC50 (NaV1.5) of 13.1 µM and an IC50 (NaV1.6) of 4.79 µM.
CN(c1cc(F)c(S(=O)(=O)Nc2cscn2)cc1Cl)[C@@H]1CN(Cc2ccccc2)CC12CC2 [Example 265, (S)-4-((5-benzyl-5-azaspiro[2.4]heptan-7-yl)(methyl)amino)-5-chloro-2-fluoro-N-(thiazol-4-yl)benzenesulfonamide 2,2,2-trifluoroacetate] showed an IC50 (NaV1.1) of 6.35 µM, an IC50 (NaV1.5) of 6.8 µM and an IC50 (NaV1.6) of 4.79 µM.
Cc1ccc(F)c(CN2CC[C@](C)(Nc3ccc(S(=O)(=O)Nc4cscn4)cc3Cl)C2)c1 [Example 266, (S)-3-chloro-4-((1-(2-fluoro-5-methylbenzyl)-3-methylpyrrolidin-3-yl)amino)-N-(thiazol-4-yl)benzenesulfonamide formate] showed an IC50 (NaV1.1) of 2.67 µM, an IC50 (NaV1.5) of 2.06 µM and an IC50 (NaV1.6) of 1.77 µM.
For O=S(=O)(Nc1cscn1)c1c(F)cc(O[C@H]2CCN(Cc3ccccc3)C2)c(Cl)c1F [Example 268, (S)-4-((1-benzylpyrrolidin-3-yl)oxy)-3-chloro-2,6-difluoro-N-(thiazol-4-yl)benzenesulfonamide hydrochloride], the IC50 (NaV1.1) was over 30 µM, the IC50 (NaV1.5) was 28.2 µM and the IC50 (NaV1.6) was 4.92 µM.
